These results are taken from ChEMBL document CHEMBL2094269, “WEHI/Eskitis Trypanosoma b. brucei screening data”.

Each structure is given as a SMILES string. pIC50: −log10 of the molar value. Values joined by “and” are separate entries in the source; they are usually repeats but may differ in a detail not shown here. Identical values can stand only once.

For one assay, the system named is Trypanosoma brucei brucei. Description: microbe, parasite or virus in culture. Format: functional, organism-based, STIB 795.
Settings: not given
For orientation: pIC50 means −log10 of the IC50, conventionally taken in molar units. On to `CCN1CCS/C1=C\C=C\C1=[N+](CC)CCS1`, for which the pIC50 is 6.41 and 7.04.

Staying with this assay, now noted: Trypanosoma brucei, STIB 795.
For the compound `Oc1ccc(CNc2ccccc2F)c2cccnc12`, the pIC50 is < 4.98.

With `COC(=O)CCC/C=C1/SC[C@@H](NC(=O)c2ccccc2)/C1=N/O`, the pIC50 is < 4.98.

As for `CC1CN(C(=O)c2ccc(COc3ccc(C(C)C)cc3)cc2)CC(C)O1` (stereo unspecified), the pIC50 was < 4.98.

Consider `O=C(CSc1nc2[nH]ncc2c(=O)n1-c1ccccc1)Nc1nccs1`, for which the pIC50 was < 4.98.

In the case of `O=C(N/N=C\c1c(O)ccc2ccccc12)c1ccc(Cn2cccn2)o1`, the pIC50 was < 4.98.

On to `CC(C)NC(=O)Nc1ccc(-c2noc(-c3ccc(Br)o3)n2)cc1`, for which the pIC50 is < 4.98.

As to `COc1ccc(/C(N)=N/OC(=O)c2ccccc2F)cc1OC`, the pIC50 is < 4.98.

Consider `Cc1cc(C)c(C(=O)CC(SCC(=O)OC(C)C)C(F)(F)F)c(=O)[nH]1` (stereo unspecified), for which the pIC50 is < 4.98.

Regarding `Cc1ccnc(NC(c2ccc3cccnc3c2O)c2c(F)cccc2Cl)c1` (stereo unspecified), the pIC50 is < 4.98.

As for `CCOC(=O)c1c(C)[nH]c2c1-c1cc(Br)ccc1C(=O)C2=O`, the pIC50 is < 4.98.

As to `CCn1cc(CN2CCC(C(=O)NCc3ccc(F)cc3)CC2)c2ccccc21`, the pIC50 is < 4.98.

For `Cc1cc(C)c(CCCc2c(C)nc(N)nc2N)cc1C`, the negative logarithm of the IC50 (pIC50) is < 4.98.

Turning to `Nc1cc(NC(=O)c2ccncc2)cc(Oc2ccc(F)cc2)c1`, the pIC50 is < 4.98.

Consider `O=c1oc2ccccc2n1Cc1c(F)cccc1Cl`, for which the pIC50 is < 4.98.

Regarding `Oc1ccc(CN2CCC(Cc3ccccc3)CC2)c2cccnc12`, the pIC50 was < 4.98.

As to `COc1ccc(/C(C)=N\Nc2nnc(C)c(O)n2)cc1`, the pIC50 is < 4.98.

Turning to `CSC1C(c2ccc(F)cc2)=NN(C(=O)Nc2ccc(C#N)cc2)C1(C)C` (stereo unspecified), the pIC50 was < 4.98.

For the compound `NC(CCCCc1ccccc1)c1cccc2ccccc12` (stereo unspecified), the pIC50 is < 4.98.

`NS(=O)(=O)c1ccc(N/C=C2\C(=O)Nc3ccccc32)cc1`: the pIC50 is < 4.98.

As to `O=C(Nc1cc(Cl)cc(Cl)c1)c1ccccn1`, the pIC50 was < 4.98.

Consider `Cc1ccc(-c2csc3ncnc(N/N=C/c4cc(C)ccc4O)c23)cc1`, for which the pIC50 was < 4.98.

Regarding `Cc1ccc(C(CNC(=O)COc2ccc(Cl)cc2)N2CCCC2)cc1` (stereo unspecified), the pIC50 was < 4.98.

On to `CCN1CCN(c2cc(C)c3cc(NC(=O)c4cccs4)ccc3n2)CC1`, for which the pIC50 was < 4.98.

As for `C/C(=N/OC(=O)c1ccc(Cn2nc(C)c(Cl)c2C)cc1)c1ccccn1`, the negative logarithm of the IC50 (pIC50) was < 4.98.

`O=C(Nc1cccc(Cl)c1)C1CCN(c2ncc(-c3ccccc3)cn2)CC1`: the pIC50 is < 4.98.

Regarding `N#CC1=C(N)NC(SCc2ccc(F)cc2)=C(C#N)C12CCCCC2`, the pIC50 was < 4.98.

For the compound `CN(C)S(=O)(=O)c1ccc2nc(NC(=O)c3cccs3)sc2c1`, the pIC50 was < 4.98.

On to `CC1CCN(S(=O)(=O)c2ccc3c4c2CC(=O)N4CC(C)S3)CC1` (stereo unspecified), for which the pIC50 is < 4.98.

As for `CCCC(=O)NC(c1ccc(SC)cc1)c1ccc2cccnc2c1O` (stereo unspecified), the pIC50 is < 4.98.

Turning to `c1ccc(-c2nnc(-c3ccccn3)nc2-c2ccccc2)cc1`, the pIC50 was < 4.98.

`Cc1nnc(Sc2nc(Nc3ccccc3)nc(Nc3ccccc3)n2)s1`: the pIC50 is < 4.98.

In the case of `Cc1ccc(NC(=O)C/C(N)=N/OC(=O)c2ccccc2Cl)cc1`, the pIC50 is < 4.98.

Regarding `Cc1ccc(C(=N)NOC(=O)c2ccco2)cc1`, the pIC50 is < 4.98.

Regarding `O=C1C=C(N2CCCCC2c2cccnc2)C2(CCCCC2)O1` (stereo unspecified), the pIC50 was < 4.98.

Turning to `CSc1ccc(C2N=C(c3ccc(C)cc3)CC(c3ccccc3O)N2)cc1` (stereo unspecified), the pIC50 was < 4.98.

In the case of `COC(=O)c1ccccc1N/N=N/c1nc2ccccc2s1`, the pIC50 is < 4.98.

For the compound `COc1ccc(Nc2nccc(-c3cccc(N)c3)n2)cc1`, the pIC50 was < 4.98.

On to `O=C(Nc1ccccc1C(=O)N/N=C/c1ccc(O)cc1O)c1ccc(F)cc1`, for which the pIC50 is < 4.98.

Turning to `CCOC(=O)c1c(C)[nH]c(=S)c(C#N)c1-c1ccncc1`, the pIC50 was < 4.98.

For the compound `Cc1cnn(-c2cc(N/N=C/c3cc(Cl)cc(Cl)c3O)ncn2)c1`, the pIC50 is < 4.98.

For the compound `COc1ccc(-c2n/c(=N/c3ccccc3)sn2-c2ccccc2)cc1`, the pIC50 was < 4.98.

For the compound `CCC(=O)NCCc1nc(-c2ccccc2)cs1`, the pIC50 is < 4.98.

On to `O=C(N/N=C/c1cc(Cl)cc(Br)c1O)c1ccccc1O`, for which the pIC50 is < 4.98.

For `Clc1ccc(C(=C2CN3CCC2CC3)c2ccc(Cl)s2)s1`, the pIC50 was < 4.98.

For `Cn1nc(-c2cccs2)nc2c(=O)n(C)c(=O)nc1-2`, the pIC50 was < 4.98.

Consider `COc1ccc(CN2CCN(C3CCC(c4ccccc4)CC3)CC2)c(OC)c1` (stereo unspecified), for which the pIC50 is < 4.98.

On to `COc1ccc(C(=O)O/N=C(\N)c2cccnc2)cc1`, for which the pIC50 is < 4.98.

With `N=C(NOC(=O)c1cccc(Br)c1)c1ccncc1`, the pIC50 was < 4.98.

For `Fc1cccc(Cl)c1COc1ccc(/C=N/n2cnnc2)cc1`, the pIC50 was < 4.98.

`CCn1c(C)cc(=S)c2ccccc21`: the pIC50 was < 4.98.

With `COc1ccc(/C(N)=N/OC(=O)c2cccc(F)c2)cc1`, the pIC50 was < 4.98.

For the compound `O=C(CC1(O)C(=O)Nc2ccc(Br)cc21)c1ccccn1` (stereo unspecified), the pIC50 was < 4.98.

`Cc1ccc(N2CC(C(=O)NCc3nnnn3-c3ccccc3)CC2=O)cc1C` (stereo unspecified): the pIC50 was < 4.98.

As to `Cc1ccc(OCCn2c(N)nc3ccccc32)cc1`, the pIC50 is < 4.98.

With `Cc1ccc(S(=O)(=O)Nc2ccc(Cl)c3cccnc23)cc1`, the pIC50 is < 4.98.

On to `Cc1nc(=S)sn1-c1nc(Nc2ccccc2)nc(Nc2ccccc2)n1`, for which the pIC50 is < 4.98.

Regarding `CC1(C)CC(NC(=O)c2ccc(C#Cc3ccccc3)cc2)CC(C)(C)N1`, the pIC50 is < 4.98.

Turning to `Cc1cccc(C(=O)N2CCN(c3cc(N4CCOCC4)nc(C)n3)CC2)c1`, the pIC50 was < 4.98.

In the case of `COc1ccc2c(c1)SCc1ccccc1/C2=C\CCN(C)C`, the pIC50 is < 4.98.

`Cc1ccc(Nc2nc3nonc3nc2NC(C)c2ccccc2)cc1C` (stereo unspecified): the pIC50 was < 4.98.

Take `CN(C)CCNC(=O)c1ccc2c(c1)NC(=O)/C(=C/c1ccccc1Cl)O2`: the pIC50 is < 4.98.

Consider `S=C1N(c2ccccc2)c2ccccc2C12CCOCC2`, for which the pIC50 is < 4.98.

`CCS(=O)(=O)c1cccc(-c2ccc3nc(N)nc(N)c3c2C)c1`: the pIC50 is < 4.98.

As to `O=C(Cc1cccs1)Nc1ccc(C(=O)Nc2nccs2)cc1`, the pIC50 was < 4.98.

Take `c1ccc(/C(=N\Nc2nc3ccccc3s2)c2ccccn2)cc1`: the pIC50 was < 4.98.

`C/C(=N\NC(=O)c1cccc(Cl)c1)c1ccccc1O`: the pIC50 was < 4.98.

Take `CCCCCn1c(C(Cc2ccccc2)NC(=O)COC)nc2ccccc21` (stereo unspecified): the pIC50 was < 4.98.

On to `CN(C)S(=O)(=O)c1ccc(C(=O)Nc2nnc(-c3cccs3)o2)cc1`, for which the pIC50 is < 4.98.

`C/C(=N/Nc1ccc(F)cc1F)c1cc2cc(Br)ccc2oc1=O`: the pIC50 is < 4.98.

In the case of `c1ccc(-c2cc(-c3ccccn3)nc(-c3ccccn3)c2)cc1`, the pIC50 is < 4.98.

Turning to `COc1ccc(O)c(/C=N/NC(=O)c2nonc2C)c1`, the pIC50 is < 4.98.

With `Cc1occc1C(=O)O/N=C(\N)c1ccc(Cl)cc1`, the pIC50 is < 4.98.

Regarding `CCOC(=O)c1ccc(Nc2ncnc3c2cnn3-c2ccc(C)cc2C)cc1`, the pIC50 was < 4.98.

As for `CCn1nc(-c2ccc(OC)cc2)nc2c(=O)n(C)c(=O)nc1-2`, the pIC50 is < 4.98.

Turning to `COc1ccc(CC(=O)Nc2sc3c(c2C#N)CC(C)(C)NC3(C)C)cc1`, the pIC50 is < 4.98.

`CCN(CC)c1cc(C)nc(NCc2ccccc2)n1`: the pIC50 is < 4.98.

As for `N#CC1=C(N)OC2=C(CC/C2=C\c2ccccc2Cl)C1c1ccccc1Cl` (stereo unspecified), the pIC50 is < 4.98.

On to `NC(=S)N/N=C/c1sc(=O)[nH]c1Cl`, for which the pIC50 is < 4.98.

As to `COc1cccc(C(=O)Nc2ccc3nc(N4CCOCC4)cc(C)c3c2)c1`, the pIC50 was < 4.98.

With `CCOC(=O)Cc1csc(NC(=O)c2ccccc2F)n1`, the pIC50 was < 4.98.

For `C/C(=N/NC(=O)c1cc(-c2ccccc2)nc2ccccc12)c1ccccc1O`, the pIC50 was < 4.98.

On to `O=C(Nc1nc(-c2ccccn2)cc2ccccc12)c1cccc(Cl)c1`, for which the pIC50 was < 4.98.

Take `CN(C)CCOC1c2ccccc2CCc2ccc3ccccc3c21` (stereo unspecified): the pIC50 is < 4.98.

Consider `CC1=C(C#N)C(C)C2=C(c3ccccc3C2=O)N1C` (stereo unspecified), for which the negative logarithm of the IC50 (pIC50) was < 4.98.

`CCOC(=O)c1nc(Nc2cc(Cl)c(OC)cc2OC)c2ccccc2n1`: the pIC50 is < 4.98.

Turning to `Cc1cccc(/C(=N\c2ccc(C)c(Cl)c2)NC2CCCCC2)c1`, the pIC50 was < 4.98.

Regarding `Cc1ccccc1-c1cc(N2CCN(C(=O)NC3CCCCC3)CC2)ncn1`, the pIC50 was < 4.98.

`CN1CCN(C2Cc3ccccc3Sc3cc(C(F)(F)F)ccc32)CC1` (stereo unspecified): the pIC50 was < 4.98.

Take `Cn1c(SC2=CS(=O)(=O)c3ccccc32)nc2ccccc21`: the pIC50 is < 4.98.

Take `COc1ccccc1NC(=O)c1cc2ccccc2cc1O`: the pIC50 was < 4.98.

In the case of `CNC(c1ccccc1)C1c2cccc3cccc(c23)C1O` (stereo unspecified), the pIC50 was < 4.98.

With `CCN(CC)c1ccc(N)c(C)c1`, the pIC50 is < 4.98.

Take `CCOc1cccc(/C=N/NC(=O)c2cc(-c3ccc(CC)cc3)n[nH]2)c1O`: the pIC50 is < 4.98.

Take `Nc1ccccc1S(=O)(=O)Nc1cccc2cccnc12`: the pIC50 is < 4.98.

As to `O=C(Cn1ncc(Cl)c(Cl)c1=O)c1ccccc1`, the pIC50 was < 4.98.

As for `OC(C#CCN1CCOCC1)(c1ccc(Cl)cc1)c1cccc(Cl)c1` (stereo unspecified), the pIC50 was < 4.98.

`CC(C)C(=O)NC(c1cccs1)c1cc(Cl)c2cccnc2c1O` (stereo unspecified): the pIC50 was < 4.98.

For the compound `CCN1CCC(N(Cc2cccs2)C(=O)Nc2ccc(C)c(Cl)c2)CC1`, the pIC50 is < 4.98.

In the case of `CC(=O)c1cccc(Nc2cc(C)nc3c(C)cc(C)cc23)c1`, the pIC50 was < 4.98.

In the case of `C=C1N(CCCCN2C(=C)C(C)(C)c3ccccc32)c2ccccc2C1(C)C`, the pIC50 is < 4.98.

For `CCOc1cccc(CNCCO)c1OCc1ccc(Cl)cc1Cl`, the pIC50 is < 4.98.

On to `O=C1C(=O)N(CO)c2ccc(Br)cc21`, for which the pIC50 was < 4.98.

Take `CCc1c(C)nc(SCC#N)c(C#N)c1C`: the pIC50 was < 4.98.

Consider `O=C(CC(SCCO)c1ccc2c(c1)OCO2)c1cccs1` (stereo unspecified), for which the pIC50 was < 4.98.

Consider `CCCC1(CCC)c2ccccc2C(=CCCN(C)C)c2ccccc21`, for which the pIC50 is < 4.98.
